Tests used:
Format in all cases: in vivo
[1] = Antioxidant (NAC) experiments in mice; conditions: NAC 10 mg/kg IP, H2O2 1.5 μmol, PCL-2 and D-cysteine 0.05 μmol each
Excerpt: A Xenogen IVIS Spectrum instrument (Caliper Life Sciences, Hopkinton, Mass.) was used for bioluminescent imaging in all animal experiments. Mice were anesthetized prior to injection and during imaging via inhalation of isoflurane. Phosphate Buffered Saline (PBS) was purchased from Thermo Fisher Scientific (Waltham, Mass.), and saline (0.9%) was made from sodium chloride and Millipore water. Isoflurane was purchased from Phoenix Pharmaceuticals, Inc. (St. Joseph, Mo.), and pharmaceutical grade DMSO was purchased from Sigma-Aldrich (St. Louis, Mo.). Medical grade oxygen was purchased from Praxair (Danbury, Conn.). FVB-luc^+ (FVB-Tg(CAG-luc,-GFP)L2G85Chco/J) mice were bred at UC Berkeley, and were single or group-housed on a 12:12 light-dark cycle at 22° C. with free access to food and water. All studies were approved and performed according to the guidelines of the Animal Care and Use Committee of the University of California, Berkeley. Unshaven, male FVB-luc^+ mice, were anesthetized with isoflurane and injected IP with NAC (10 mg/kg in 25 μL of PBS, pH 7-8) or PBS (25 μL). After 2 min, the mice were injected IP with a mixture of PCL-2 and D-cysteine (0.05 μmol each, in 50 μL of 1:1 DMSO:PBS) immediately prior to IP injection of H2O2 (1.5 μmol in 75 μL of PBS). […]

caspase 8 = biological target: T1, caspase 8 (Mus musculus, UniProt O89110); assay: Lipopolysaccharide inflammation model, caspase 8 detection with IETDC; conditions: pan-caspase inhibitor 1 μmol IP, LPS-treated mice
T1 construct: from tissue; host or cells: living FVB-luc+ mice (whole animal, IP injection) after LPS challenge
T1 sequence (O89110 219-376 limits assumed): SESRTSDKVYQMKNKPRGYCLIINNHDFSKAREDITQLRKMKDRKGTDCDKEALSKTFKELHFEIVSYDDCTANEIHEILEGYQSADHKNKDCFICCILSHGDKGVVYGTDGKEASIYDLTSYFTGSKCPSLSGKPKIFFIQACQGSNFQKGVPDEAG
T1 sequence (O89110 388-480 limits assumed): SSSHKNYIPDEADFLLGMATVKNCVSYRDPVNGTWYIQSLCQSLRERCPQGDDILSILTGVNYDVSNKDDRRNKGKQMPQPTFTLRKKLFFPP
Excerpt: (§1) A Xenogen IVIS Spectrum instrument (Caliper Life Sciences, Hopkinton, Mass.) was used for bioluminescent imaging in all animal experiments. Mice were anesthetized prior to injection and during imaging via inhalation of isoflurane. Phosphate Buffered Saline (PBS) was purchased from Thermo Fisher Scientific (Waltham, Mass.), and saline (0.9%) was made from sodium chloride and Millipore water. Isoflurane was purchased from Phoenix Pharmaceuticals, Inc. (St. Joseph, Mo.), and pharmaceutical grade DMSO was purchased from Sigma-Aldrich (St. Louis, Mo.). Medical grade oxygen was purchased from Praxair (Danbury, Conn.).
(§2) FVB-luc^+ (FVB-Tg(CAG-luc,-GFP)L2G85Chco/J) mice were bred at UC Berkeley, and were single or group-housed on a 12:12 light-dark cycle at 22° C. with free access to food and water. All studies were approved and performed according to the guidelines of the Animal Care and Use Committee of the University of California, Berkeley.
Unshaven, female FVB-luc^+ mice, aged 2-5 months, were anesthetized with isoflurane and injected IP with lipopolysaccharides (LPS, 3 mg/kg in 50 μL of saline) or saline (50 μL). For studies with PCL-2 alone, mice were injected IP with either apocynin (10 mg/kg in 20 μL of DMSO) or DMSO (20 μL) 6 h after LPS injection. […]

H2O2 and caspase 8 = assay: Lipopolysaccharide inflammation model, dual detection with PCL-2 and IETDC; conditions: ascorbic acid 200 mg/kg and z-VD-OPh 1 μmol used together, LPS-treated mice
Excerpt: as §1, §2
For studies with PCL-2 and IETDC, mice were injected IP with ascorbic acid (200 mg/kg in 30 μL of saline) or the saline vehicle (30 μL) 30 min prior to IP injection of LPS (3 mg/kg in 50 μL of saline) or saline (50 μL). Two hours after injection of LPS, z-VD(OMe)-OPh (1 μmol in 20 μL of DMSO) or the vehicle, DMSO (20 μL), was injected IP. […]

FVB-luc^+ mice = assay: Control: effect of inhibitors and antioxidants on HCBT and D-cysteine luciferin signal in mice; conditions: apocynin 10 mg/kg or z-VD-OPh 1 μmol IP; HCBT and D-cysteine 0.01 μmol each
Experimental: (a) Total photon fluxes, 0-15 min post-injection, for mice (n=3) injected with apocynin (IP, 10 mg/kg in 20 μL DMSO) or vehicle (IP, 20 μL DMSO) two min prior to injections of a mixture of HCBT and D-cysteine (IP, 0.01 μmol each, in 50 μL of 1:1 DMSO:PBS). (b) Total photon fluxes, 15-45 min post-injection, for mice (n=3) injected with z-VD(OMe)-OPh (IP, 1 μmol in 20 μL DMSO) or vehicle (IP, 20 μL DMSO) 30 min prior to injections of a mixture of HCBT and D-cysteine (IP, 0.01 μmol each, in 50 μL of 1:1 DMSO:PBS). Error bars are ±SEM.
FIG. 18 depicts bioluminescent signals from HCBT and D-cysteine with ascorbic acid in FVB-luc^+ mice. Total photon fluxes, 30-60 min post-injection, for mice (n=3-4) injected with ascorbic acid (IP, 200 mg/kg in 30 μL saline) or vehicle (IP, 30 μL saline) 4.5 h prior to injections of a mixture of HCBT and D-cysteine (IP, 0.01 μmol each, in 50 μL of 1:1 DMSO:PBS). Error bars are ±SEM.

Row | SMILES | effect of NAC on the PCL-2 bioluminescent signal [1] | attenuation of the IETDC signal (caspase 8) | decrease in dual-probe bioluminescent signal (H2O2 and caspase 8) | effect on the luciferin signal from HCBT and D-cysteine in vivo (FVB-luc^+ mice)
1 | CC(=O)N[C@@H](CS)C(=O)O [NAC, N-acetyl-L-cysteine] | considerably attenuated |  |  | 
2 | COC(=O)CC(NC(=O)C(NC(=O)OCc1ccccc1)C(C)C)C(=O)COc1c(F)cccc1F (stereo not shown) [z-VD-OPh] |  | 34% | 30% | do not alter the luciferin signal
